Laboratory results from ChEMBL document CHEMBL6109097, “Structure-based design of novel 2,4,5-trisubstituted pyrimidine derivatives as potent HIV-1 NNRTIs by exploiting the tolerant regions in NNTRIs binding pocket” (Eur J Med Chem, 2025).

How the values were obtained:
[1] = Cytotoxicity against human MT4 cells assessed as reduction in cell viability incubated for 5 days by MTT assay; assay type: toxicity, cell-based; conditions: time 5 day
[2] = Selectivity index, ratio of CC50 for cytotoxicity against human MT4 cells assessed as reduction in cell viability to EC50 for antiviral activity against human MT4 cells assessed as protection against virus-induced cytopathic effect; assay type: toxicity, cell-based; conditions: read-out: Ratio CC50/EC50
[3] = tested on: Human immunodeficiency virus 1; experiment: Antiviral activity against wild type HIV-1 IIIB infected in human MT4 cells assessed as protection against virus-induced cytopathic effect incubated for 5 days by MTT assay; assay type: functional, organism-based; conditions: Human immunodeficiency virus 1, IIIB, MT4, 120 h
[4] = tested on: Human immunodeficiency virus 1; experiment: Antiviral activity against NNRTI-resistant HIV-1 harboring Y181C mutant infected in human MT4 cells assessed as protection against virus-induced cytopathic effect incubated for 5 days by MTT assay; assay type: functional, organism-based; conditions: Human immunodeficiency virus 1, MT4, 120 h
[5] = tested on: Human immunodeficiency virus 1; experiment: Antiviral activity against NNRTI-resistant HIV-1 harboring K103N mutant infected in human MT4 cells assessed as protection against virus-induced cytopathic effect incubated for 5 days by MTT assay; assay type: functional, organism-based; conditions: Human immunodeficiency virus 1, MT4, 120 h
[6] = tested on: Human immunodeficiency virus 1; experiment: Antiviral activity against NNRTI-resistant HIV-1 harboring Y188L mutant infected in human MT4 cells assessed as protection against virus-induced cytopathic effect incubated for 5 days by MTT assay; assay type: functional, organism-based; conditions: Human immunodeficiency virus 1, MT4, 120 h
[7] = tested on: Human immunodeficiency virus 1; experiment: Antiviral activity against NNRTI-resistant HIV-1 harboring L100I mutant infected in human MT4 cells assessed as protection against virus-induced cytopathic effect incubated for 5 days by MTT assay; assay type: functional, organism-based; conditions: Human immunodeficiency virus 1, MT4, 120 h
[8] = tested on: Human immunodeficiency virus 1; experiment: Antiviral activity against NNRTI-resistant HIV-1 harboring F227L/V106A double mutant infected in human MT4 cells assessed as protection against virus-induced cytopathic effect incubated for 5 days by MTT assay; assay type: functional, organism-based; conditions: Human immunodeficiency virus 1, MT4, 120 h
[9] = tested on: Human immunodeficiency virus 1; experiment: Antiviral activity against NNRTI-resistant HIV-1 harboring E138K mutant infected in human MT4 cells assessed as protection against virus-induced cytopathic effect incubated for 5 days by MTT assay; assay type: functional, organism-based; conditions: Human immunodeficiency virus 1, MT4, 120 h
[10] = biological target: Human immunodeficiency virus type 1 reverse transcriptase (Human immunodeficiency virus 1, UniProt Q72547); experiment: Inhibition of wild type HIV-1 reverse transcriptase assessed as reduction in biotin-dUTP incorporation in cDNA preincubated with compound for 1 hr in presence of biotin-labeled dNTPs by ELISA
[11] = tested on: Human immunodeficiency virus 1; experiment: Antiviral activity against NNRTI-resistant HIV-1 harboring RES056 mutant infected in human MT4 cells assessed as protection against virus-induced cytopathic effect incubated for 5 days by MTT assay; assay type: functional, organism-based; conditions: Human immunodeficiency virus 1, MT4, 120 h
[12] = tested on: Human immunodeficiency virus 1; experiment: Potency index, ratio of efavirenz EC50 to test compound EC50 for antiviral activity against NNRTI-resistant HIV-1 harboring L100I mutant infected in human MT4 cells assessed as protection against virus-induced cytopathic effect incubated for 5 days by MTT assay; assay type: functional; conditions: time 5 day
[13] = tested on: Human immunodeficiency virus 1; experiment: Potency index, ratio of efavirenz EC50 to test compound EC50 for antiviral activity against NNRTI-resistant HIV-1 harboring K103N mutant infected in human MT4 cells assessed as protection against virus-induced cytopathic effect incubated for 5 days by MTT assay; assay type: functional; conditions: time 5 day
[14] = tested on: Human immunodeficiency virus 1; experiment: Potency index, ratio of efavirenz EC50 to test compound EC50 for antiviral activity against NNRTI-resistant HIV-1 harboring F227L/V106A double mutant infected in human MT4 cells assessed as protection against virus-induced cytopathic effect incubated for 5 days by MTT assay; assay type: functional; conditions: time 5 day

| Compound | CC50 at 120 h [1] [nM] | selectivity ratio [2] | EC50 [3] [nM] | EC50 [4] [nM] | EC50 [5] [nM] | EC50 [6] [nM] | EC50 [7] [nM] | EC50 [8] [nM] | EC50 [9] [nM] | IC50 [10] [nM] | EC50 [11] [nM] | Ratio EC50 [12] | Ratio EC50 [13] | Ratio EC50 [14] |
| --- | --- | --- | --- | --- | --- | --- | --- | --- | --- | --- | --- | --- | --- | --- |
| Cc1cc(/C=C/C#N)cc(C)c1Oc1nc(Nc2ccc(N3CCN(S(C)(=O)=O)CC3)c(F)c2)ncc1-c1cnc(F)nc1 | 600 | 95 | 6.3 | – | – | – | – | – | – | – | – | – | – | – |
| Cc1cc(/C=C/C#N)cc(C)c1Oc1nc(Nc2ccc(N3CCN(S(C)(=O)=O)CC3)c(C#N)c2)ncc1-c1cnc(F)nc1 | 30900 | 784 | 39 | – | – | – | – | – | – | – | – | – | – | – |
| Cc1cc(/C=C/C#N)cc(C)c1Oc1nc(Nc2ccc(N3CCN(S(C)(=O)=O)CC3)c(F)c2)ncc1-c1cnc(N)nc1 | 6700 | 918 | 7.3 | – | – | – | – | – | – | – | – | – | – | – |
| Cc1cc(/C=C/C#N)cc(C)c1Oc1nc(Nc2ccc(N3CCS(=O)(=O)CC3)c(C#N)c2)ncc1-c1ccc(N)nc1 | 700 | 16 | 41 | – | – | – | – | – | – | – | – | – | – | – |
| Cc1cc(/C=C/C#N)cc(C)c1Oc1nc(Nc2ccc(N3CCS(=O)(=O)CC3)c(F)c2)ncc1-c1cnc(F)nc1 | 28800 | 2270 | 13 | 120 | 13 | 6500 | 51 | 210 | 55 | 350 | 1590 | – | – | – |
| Cc1cc(/C=C/C#N)cc(C)c1Oc1nc(Nc2ccc(N3CCS(=O)(=O)CC3)c(C#N)c2)ncc1-c1cnc(N)nc1 | 800 | 22 | 31 | – | – | – | – | – | – | – | – | – | – | – |
| Cc1cc(/C=C/C#N)cc(C)c1Oc1nc(Nc2ccc(N3CCN(S(C)(=O)=O)CC3)c(C#N)c2)ncc1-c1ccc(N)nc1 | 161000 | 25300 | 6.4 | 34 | 6.2 | 250 | 9.4 | 30 | 30 | 410 | 210 | 3.7 | 12.6 | 7 |
| Cc1cc(/C=C/C#N)cc(C)c1Oc1nc(Nc2ccc(N3CCN(S(C)(=O)=O)CC3)c(F)c2)ncc1-c1ccc(N)nc1 | 75600 | 13000 | 5.8 | 180 | 6.6 | 700 | 43 | 180 | 29.8 | 270 | 100 | – | – | – |
| Cc1cc(/C=C/C#N)cc(C)c1Oc1nc(Nc2ccc(N3CCN(S(C)(=O)=O)CC3)c(C#N)c2)ncc1-c1ccc(F)nc1 | > 200000 | > 7620 | 26 | – | – | – | – | – | – | – | – | – | – | – |
| Cc1cc(/C=C/C#N)cc(C)c1Oc1nc(Nc2ccc(N3CCS(=O)(=O)CC3)c(C#N)c2)ncc1-c1ccc(F)nc1 | > 210000 | > 7830 | 27 | – | – | – | – | – | – | – | – | – | – | – |
| Cc1cc(/C=C/C#N)cc(C)c1Oc1nc(Nc2ccc(N3CCN(S(C)(=O)=O)CC3)c(C#N)c2)ncc1-c1cncnc1 | > 206000 | > 24200 | 8.5 | 99 | 13 | 890 | 39 | 190 | 49 | 290 | 770 | – | – | – |
| Cc1cc(/C=C/C#N)cc(C)c1Oc1nc(Nc2ccc(N3CCS(=O)(=O)CC3)c(F)c2)ncc1-c1cccnc1 | 82800 | 4850 | 17 | 380 | 12 | 1560 | 130 | 420 | 64 | – | 4520 | – | – | – |
| Cc1cc(/C=C/C#N)cc(C)c1Oc1nc(Nc2ccc(N3CCS(=O)(=O)CC3)c(F)c2)ncc1-c1cncnc1 | > 219000 | > 40500 | 5.4 | 170 | 6.7 | 1270 | 90 | 280 | 53 | 200 | 1350 | – | – | – |
| Cc1cc(/C=C/C#N)cc(C)c1Oc1nc(Nc2ccc(N3CCS(=O)(=O)CC3)c(F)c2)ncc1-c1cnc(N)nc1 | 1000 | 156 | 6 | – | – | – | – | – | – | – | – | – | – | – |
| Cc1cc(/C=C/C#N)cc(C)c1Oc1nc(Nc2ccc(N3CCN(S(C)(=O)=O)CC3)c(F)c2)ncc1-c1ccc(F)nc1 | > 202000 | > 11600 | 17 | 460 | 34 | 4540 | 140 | 350 | 51 | – | 8280 | – | – | – |
| Cc1cc(/C=C/C#N)cc(C)c1Oc1nc(Nc2ccc(N3CCN(S(C)(=O)=O)CC3)c(C#N)c2)ncc1-c1cccnc1 | 179000 | 22700 | 7.9 | 150 | 11 | 550 | 48 | 230 | 37 | 330 | 800 | – | – | – |
| Cc1cc(/C=C/C#N)cc(C)c1Oc1nc(Nc2ccc(N3CCN(S(C)(=O)=O)CC3)c(F)c2)ncc1-c1cccnc1 | > 41700 | > 2140 | 19 | 400 | 24 | 2030 | 230 | 640 | 57 | 630 | 3740 | – | – | – |
| Cc1cc(/C=C/C#N)cc(C)c1Oc1nc(Nc2ccc(N3CCN(S(C)(=O)=O)CC3)c(F)c2)ncc1-c1cncnc1 | > 208000 | > 12900 | 16 | 200 | 28 | 2200 | 110 | 313 | 96 | 490 | 1160 | – | – | – |
| Cc1cc(/C=C/C#N)cc(C)c1Oc1nc(Nc2ccc(N3CCS(=O)(=O)CC3)c(C#N)c2)ncc1-c1cnc(F)nc1 | 23900 | 110 | 220 | – | – | – | – | – | – | – | – | – | – | – |
| Cc1cc(/C=C/C#N)cc(C)c1Oc1nc(Nc2ccc(N3CCS(=O)(=O)CC3)c(F)c2)ncc1-c1ccc(N)nc1 | 800 | 239 | 3.5 | – | – | – | – | – | – | – | – | – | – | – |
| Cc1cc(/C=C/C#N)cc(C)c1Oc1nc(Nc2ccc(N3CCN(S(C)(=O)=O)CC3)c(C#N)c2)ncc1-c1cnc(N)nc1 | 38600 | 5390 | 7.2 | 42 | 6.7 | > 38600 | 27 | 96 | 39 | – | 280 | – | – | – |
| Cc1cc(/C=C/C#N)cc(C)c1Oc1nc(Nc2ccc(N3CCS(=O)(=O)CC3)c(C#N)c2)ncc1-c1cncnc1 | 2400 | 258 | 9.1 | – | – | – | – | – | – | – | – | – | – | – |
| Cc1cc(/C=C/C#N)cc(C)c1Oc1nc(Nc2ccc(N3CCS(=O)(=O)CC3)c(C#N)c2)ncc1-c1cccnc1 | 21800 | 1340 | 16 | 140 | 9.9 | 720 | 54 | 600 | 50 | 490 | 990 | – | – | – |
| Cc1cc(/C=C/C#N)cc(C)c1Oc1nc(Nc2ccc(N3CCS(=O)(=O)CC3)c(F)c2)ncc1-c1ccc(F)nc1 | > 212000 | > 221 | 960 | – | – | – | – | – | – | – | – | – | – | – |
| O=C1Nc2ccc(Cl)cc2[C@@](C#CC2CC2)(C(F)(F)F)O1 [EFAVIRENZ] | > 6400 | – | 5.2 | 9.8 | 78 | 280 | – | – | – | – | 373 | – | – | – |
| Cc1cc(C#N)cc(C)c1Oc1nc(Nc2ccc(C#N)cc2)nc(N)c1Br [ETRAVIRINE] | > 4600 | – | 3.8 | – | – | 23 | 6.5 | 8.5 | 9 | – | 52 | – | – | – |
| Cc1ccnc2c1NC(=O)c1cccnc1N2C1CC1 [NEVIRAPINE] | > 15000 | – | – | 6590 | 5740 | > 1500 | 1760 | 10300 | 223 | – | > 15000 | – | – | – |
